“And” between values parts separate entries of the source, which are not always exact repeats. Equal entries are not always repeated.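 Grown in 96-well plates, cells were treated for 48 hours with each compound at five concentrations. Insufficient inhibition: endpoint recorded as highest concentration tested. At the GI50, growth is halved. At the TGI there is no net growth.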
How the values were obtained:
Assay in all cases: NCI-60 cell line screen, 48 h
K-562 leukemia = system: K-562 leukemia
NCI/ADR-RES ovarian = system: NCI/ADR-RES ovarian
CAKI-1 renal = system: CAKI-1 renal
PC-3 prostate = system: PC-3 prostate
KM12 colon = system: KM12 colon
MOLT-4 leukemia = system: MOLT-4 leukemia
IGROV1 ovarian = system: IGROV1 ovarian
HOP-92 NSCLC = system: HOP-92 NSCLC
A549 NSCLC = system: A549 NSCLC
MDA-MB-435 = system: MDA-MB-435

Compound	GI50 (K-562 leukemia)	TGI (K-562 leukemia)	GI50 (NCI/ADR-RES ovarian) [µM]	TGI (NCI/ADR-RES ovarian)	GI50 (CAKI-1 renal) [µM]	TGI (CAKI-1 renal)	GI50 (PC-3 prostate) [µM]	TGI (PC-3 prostate)	GI50 (KM12 colon) [µM]	TGI (KM12 colon)	GI50 (MOLT-4 leukemia) [µM]	TGI (MOLT-4 leukemia)	GI50 (IGROV1 ovarian)	TGI (IGROV1 ovarian)	GI50 (HOP-92 NSCLC)	TGI (HOP-92 NSCLC)	GI50 (A549 NSCLC) [µM]	TGI (A549 NSCLC)	GI50 (MDA-MB-435) [µM]	TGI (MDA-MB-435)
COc1ccc2c(c1)c(-c1nc(-c3cn(C)c4ncccc34)cs1)cn2CCCCN1CCOCC1	0.675 µM	1.61 µM	1.72	5.05 µM	1.39	2.89 µM	1.12	3.26 µM	1.42	3.09 µM	0.951	2.8 µM	2.66 µM	10.4 µM	0.922 µM	3.59 µM	1.71	3.71 µM	1.12	2.58 µM
COc1ccc2cc(C(=O)/C=C/c3ccco3)ccc2c1	38 µM	> 100 µM	23.8	63.8 µM	38.7	> 100 µM	47.4	> 100 µM	34.5	> 100 µM	41.7	> 100 µM	30.3 µM	> 100 µM	62.6 µM	> 100 µM	31.8	> 100 µM	34.2	> 100 µM
C/C=C1\C[C@@H]2C(OC)Nc3cc(O)c(OC)cc3C(=O)N2C1 (some centres not stated)	0.00347 µM	2.74 µM	–	0.0384 µM and < 0.0116 µM	0.00752	–	0.0221	0.404 µM and 0.478 µM	–	0.34 µM and 0.0408 µM	0.00248	0.225 µM	0.0159 µM	0.906 µM and 2.84 µM	0.00738 µM	0.129 µM and < 0.0137 µM	0.0215	> 100 µM	0.00819	0.0623 µM and < 0.0106 µM
O=C(Nc1cccc(-n2cc(-c3ccncc3)c(-c3ccc(O)c(Cl)c3)n2)c1)c1ccc(N2CCOCC2)c(C(F)(F)F)c1	1.45 µM	> 50 µM	4.24	> 50 µM	2.24	> 50 µM	2.39	> 50 µM	1.12	> 50 µM	2.33	> 50 µM	> 50 µM	> 50 µM	0.994 µM	3.81 µM	2	> 50 µM	5	> 50 µM
COC(=O)c1cc(NC(=O)CN(CCN(CC(=O)O)CC(=O)Nc2ccc(O)c(C(=O)OC)c2)CC(=O)O)ccc1O	96.4 µM	> 100 µM	> 100	> 100 µM	32	> 100 µM	96.2	> 100 µM	> 100	> 100 µM	28.5	> 100 µM	> 100 µM	> 100 µM	> 100 µM	> 100 µM	64.8	> 100 µM	> 100	> 100 µM
[O]=[W](=[O])([OH])[OH]	> 100 µM	> 100 µM	> 100	> 100 µM	> 100	> 100 µM	> 100	> 100 µM	> 100	> 100 µM	> 100	> 100 µM	> 100 µM	> 100 µM	> 100 µM	> 100 µM	> 100	> 100 µM	> 100	> 100 µM
Cc1cccc2c1NC(=O)C2(c1ccc(O)cc1)c1ccc(O)cc1	19.1 µM	99.5 µM	0.133	> 100 µM	26.2	> 100 µM	0.0497	> 62 µM	3.68	23.6 µM	11.8	75 µM	0.0634 µM	47.6 µM	1.42 µM	27.6 µM	21.1	> 100 µM	15.4	34.9 µM
COc1ccc(OC)c(-c2cc(C(=O)O)c3cc4ccccc4cc3n2)c1	–	> 100 µM	–	> 100 µM	–	> 100 µM	–	> 100 µM	–	> 100 µM	–	> 100 µM	–	> 100 µM	–	> 100 µM	–	> 100 µM	–	> 100 µM
O=C1c2ccccc2CCC1(Br)Br	0.357 µM	2.02 µM	3.4	17.3 µM	1.65	3.04 µM	4.14	16.9 µM	4.34	15 µM	0.631	3.94 µM	2.59 µM	5.98 µM	1.27 µM	2.58 µM	6.84	19.1 µM	2.34	6.53 µM
CN1CCN(CCCN2c3ccccc3Sc3ccc(C(F)(F)F)cc32)CC1	2.13 µM and 2.01 µM and 4.6 µM	4.27 µM and 28.6 µM	1.91	4.61 µM and 25 µM and 25.5 µM	1.55	3.36 µM and 22.4 µM and 23 µM	2.31	8.42 µM and 16.8 µM and 17.5 µM	1.85	3.48 µM and 10.7 µM and 11.4 µM	2.35	4.92 µM and 10.8 µM and 20.6 µM	2.19 µM and 3.77 µM and 9.9 µM	4.98 µM and 11.9 µM and 23 µM	1.07 µM and 2.26 µM and 7.54 µM	4.35 µM and 10.4 µM and 20.5 µM	2.31	6.47 µM and 24.5 µM and 25.2 µM	1.69	3.29 µM and 9.49 µM and 11.4 µM
COc1ccc(CCN2COc3ccc4ccc(=O)oc4c3C2)cc1OC	–	> 100 µM	–	> 100 µM	–	> 100 µM	–	> 100 µM	–	> 100 µM	–	> 100 µM	–	> 100 µM	–	> 100 µM	–	> 100 µM	–	> 100 µM
CS(=O)(=O)N(CC(=O)O)Cc1ccccc1	–	> 100 µM	–	> 100 µM	–	> 100 µM	–	> 100 µM	–	> 100 µM	–	> 100 µM	–	> 100 µM	–	> 100 µM	–	> 100 µM	–	> 100 µM

— PubChem BioAssay (NCI)
